Holding throughout (experiment): probe loading in HEK293T, FLAG IP, TAMRA click, in-gel fluorescence
Holding throughout (assay type): cell-based
Holding throughout (details): 15 µM, fed as free acid and activated to the CoA ester in cells; covalent thioester

One test concerns the target T1, ZDHHC11 (Homo sapiens, UniProt Q9H8X9, M181A).
T1 construct: N-terminal 3xFLAG tag; expressed in HEK293T, anti-FLAG immunoprecipitated
T1 sequence (Q9H8X9 1-412 M181A): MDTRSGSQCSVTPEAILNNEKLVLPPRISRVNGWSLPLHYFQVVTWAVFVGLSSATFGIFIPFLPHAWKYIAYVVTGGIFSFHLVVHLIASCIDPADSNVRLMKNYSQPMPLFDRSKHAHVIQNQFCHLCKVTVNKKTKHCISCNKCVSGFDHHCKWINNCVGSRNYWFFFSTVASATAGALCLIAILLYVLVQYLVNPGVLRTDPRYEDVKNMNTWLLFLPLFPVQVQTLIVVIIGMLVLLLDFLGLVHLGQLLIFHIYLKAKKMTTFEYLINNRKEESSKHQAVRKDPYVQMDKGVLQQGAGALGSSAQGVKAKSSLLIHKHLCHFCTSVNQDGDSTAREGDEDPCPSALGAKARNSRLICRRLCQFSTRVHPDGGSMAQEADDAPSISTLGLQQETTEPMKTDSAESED
From the text:
probe loading in HEK293T, FLAG IP, TAMRA click, in-gel fluorescence on ZDHHC11 | ZDHHC11(M181A)/16-cPr

A further test deals with T2, ZDHHC15 (Homo sapiens, UniProt Q96MV8, Y184G).
T2 construct: N-terminal 3xFLAG tag; expressed in HEK293T, anti-FLAG immunoprecipitated
T2 sequence (Q96MV8 1-337 Y184G): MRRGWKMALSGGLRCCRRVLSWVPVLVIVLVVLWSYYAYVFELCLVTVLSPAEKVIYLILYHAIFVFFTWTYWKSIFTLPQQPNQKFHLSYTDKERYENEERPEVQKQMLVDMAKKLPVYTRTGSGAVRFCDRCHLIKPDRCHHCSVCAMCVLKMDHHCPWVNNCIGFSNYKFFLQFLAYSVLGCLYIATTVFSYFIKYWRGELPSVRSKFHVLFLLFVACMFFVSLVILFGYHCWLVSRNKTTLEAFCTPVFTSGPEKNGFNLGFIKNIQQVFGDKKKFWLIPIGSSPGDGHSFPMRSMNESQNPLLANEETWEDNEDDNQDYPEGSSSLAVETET
The source says:
probe loading in HEK293T, FLAG IP, TAMRA click, in-gel fluorescence on ZDHHC15 | ZDHHC15(Y184G)/20-cPr

The next test addresses T3, ZDHHC3 (Homo sapiens, UniProt Q9NYG2, I182G).
T3 construct: N-terminal 3xFLAG tag; expressed in HEK293T, anti-FLAG immunoprecipitated
T3 sequence (Q9NYG2 1-299 I182G): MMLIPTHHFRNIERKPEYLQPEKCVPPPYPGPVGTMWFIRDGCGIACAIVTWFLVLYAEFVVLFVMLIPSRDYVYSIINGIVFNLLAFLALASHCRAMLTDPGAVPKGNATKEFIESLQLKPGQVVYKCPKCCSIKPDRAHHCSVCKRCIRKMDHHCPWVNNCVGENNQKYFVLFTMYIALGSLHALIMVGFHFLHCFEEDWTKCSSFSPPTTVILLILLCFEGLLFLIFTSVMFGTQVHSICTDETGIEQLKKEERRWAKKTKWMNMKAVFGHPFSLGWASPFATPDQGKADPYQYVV

The target in another test is T4, ZDHHC7 (Homo sapiens, UniProt Q9NXF8, L57G).
T4 construct: N-terminal 3xFLAG tag; expressed in HEK293T, anti-FLAG immunoprecipitated
T4 sequence (Q9NXF8 1-308 L57G): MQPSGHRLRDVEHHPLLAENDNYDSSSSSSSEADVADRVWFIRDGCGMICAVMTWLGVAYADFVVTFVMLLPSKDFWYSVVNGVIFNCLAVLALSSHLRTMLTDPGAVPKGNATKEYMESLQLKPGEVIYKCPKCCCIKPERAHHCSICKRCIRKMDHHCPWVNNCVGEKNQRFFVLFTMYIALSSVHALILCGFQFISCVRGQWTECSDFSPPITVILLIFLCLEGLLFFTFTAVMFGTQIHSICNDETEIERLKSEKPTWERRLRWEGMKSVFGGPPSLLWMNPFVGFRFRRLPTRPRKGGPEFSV
From the text: probe loading in HEK293T, FLAG IP, TAMRA click, in-gel fluorescence on ZDHHC7 | ZDHHC7(L57G)/20-Bz

Structures are written as SMILES.

In the case of `C#CCN(CCCCCCCCCCCC(=O)O)C(=O)C1CC1` [6b, 12-(N-(Prop-2-yn-1-yl)cyclopropanecarboxamido)dodecanoic acid], the “probe loading in HEK293T, FLAG IP, TAMRA click, in-gel fluorescence” value (“probe loading in HEK293T, FLAG IP” for short) at ZDHHC11 is “ZDHHC11(M181A)/16-cPr”.

For the compound `C#CCN(CCCCCCCCCCCCCCCC(=O)O)C(=O)C1CC1` [6h, 16-(N-(Prop-2-yn-1-yl)cyclopropanecarboxamido)hexadecanoic acid], the “probe loading in HEK293T, FLAG IP” value is listed as “ZDHHC15(Y184G)/20-cPr” on ZDHHC15 and “four additional optimized mutant/probe pairs: ZDHHC3(I182G)/20-cPr” at ZDHHC3.

Regarding `C#CCN(CCCCCCCCCCCCCCCC(=O)O)C(=O)c1ccccc1` [6i, 16-(N-(Prop-2-yn-1-yl)benzamido)hexadecanoic acid], the “probe loading in HEK293T, FLAG IP” value on ZDHHC7 is reported as “ZDHHC7(L57G)/20-Bz”.

Values taken from article PMC11471619, “A palmitoyl transferase chemical–genetic system to map ZDHHC-specific S-acylation” (Nature Biotechnology, 2024).
